Results reported in patent US20050074867A1, “Preservation of competent cells at ambient temperatures” (priority 2001, published 2005).
Where “and” joins values, the source holds several entries; their conditions need not be identical. Identical values can stand only once.

Assays:
Format in all cases: cell-based
[1] = tested on: Escherichia coli ATCC strain MM294 cells; assay: Electroporation of E. coli MM294 cells with pUC18 (survival and efficiency); details: cells loaded with 10% MAG, preserved (dried); average of three independent experiments
Description: (§1) (2) Electroporation of fresh E. coli electrocompetent cells: Two aliquots of the concentrated cells (50 μl each) were transferred into pre-chilled Eppendorf tubes (1.5 ml) and 2 μl of pUC18 plasmid DNA (approx. 300 ng/μl) were added to the tubes. The [cells+DNA] mixtures were incubated on ice for 5 minutes and transferred into pre-chilled cuvettes for electroporation. The cells were electroporated by using a BTX T-100 electroporator, at 625 or at 800 volts (V) in BTX cuvettes (0.1 cm gap, P/N 610 Disposable Cuvettes) with a time constant “r” equal 5 msec. Under the pulse conditions described above, the cells were subjected to an electrical field “E” equal to 6.25 kV/cm or 8.0 kV/cm.
(§2) Immediately after the pulse, the cells were transferred into small glass tubes (10×100 mm) with 0.5 ml of “outgrowth medium” (L-broth+20% sucrose+10 mM CaCl2). The electroporated bacteria were incubated at 37° C. with moderate shaking (150 rpm) for 60 minutes. When the 60 minutes period elapsed, the cells were diluted in “outgrowth medium” and duplicate samples were spread plated on L-agar plates with no antibiotic (to determine electroporation survival) and on L-agar plates with 50 μg/ml or 100 μg/ml of ampicillin (selective marker on pUC18 plasmid; to determine electroporation efficiency). The plates were incubated overnight at 37° C. and the colonies were counted the next day.
(§3) (6) Electroporation of dried (preserved) E. coli cells: One or two 50 μl aliquots were removed from each rehydrated vial and transferred to pre-chilled Eppendorf tubes. The cells were mixed with pUC18 plasmid DNA (300 ng/μl) and electroporated using the conditions described previously for the electroporation of fresh electrocompetent cells.
(§4) Electroporation survival was calculated as the number of viable cells recovered after electrical pulse per total number of electroportated cells. Electroporation efficiency was calculated as the number of transformants (cells which received pUC18 plasmid DNA) per number of cells recovered after electroporation (electroporation survival). When applicable, the electroporation efficiency was also expressed as number of transformants per 1 μg of pUC18 DNA (Cfu/μg).
In this experiment, the cells were washed twice in ice-cold 20% sucrose and concentrated 100-fold after the second wash. Additionally, four samples were prepared (A, B, C, and D). […] Additional solution consisting of 22.5% 4:1 sucrose:MAG was prepared and evaluated for preservation of the cells (sample D). […] Electroporation survival and efficiencies in samples rehydrated with solutions containing different amounts of sucrose were determined. […] Electroporation survival and efficiencies were determined and compared.

[2] = tested on: commercial electrocompetent E. coli cells; assay: Preservation yield and stability of commercial electrocompetent E. coli cells
Description: (4) Preservation of electrocompetent E. coli cells: The cells (resuspended in PBS buffer or on 20% sucrose) were mixed with an equal mass of preservation solution consisting of 45% 2:1 sucrose:raffinose or 45% 4:1 sucrose:MAG on ice. Altematively, the cell pellets were resuspended directly in 22.5% sucrose:raffinose or 22.5% 4:1 sucrose:MAG. The 0.5 g aliquots were distributed in 5 ml glass serum vials or 0.2 g aliquots were distributed in 1.2 ml glass serum vials. To determine the survival in preservation solution before drying, cell-containing mixtures were diluted in PBS buffer containing 20% sucrose and appropriate dilutions were spread plated in duplicate on L-agar plates.
The samples were dried by foam formation. The mixtures were foamed at 0° C. and kept at that temperature until foam formation occurred. After foam was well formed, shelf temperature was increased to 20° C. and drying continued overnight (at least 12 hours).
When applicable, electrocompetent cells were frozen in the following manner. The cell suspension (100 μl) was mixed with 10% DMSO (10 μl) and slowly frozen at −80° C.
(5) Assaying the preserved E. coli cells: Dried samples were rehydrated at room temperature. 1 ml of rehydration solution (20% sucrose) was added to the 5 ml vials and 0.2 ml was added to the 1.2 ml vials. For the determination of preservation survival, rehydrated cells were diluted and spread plated in duplicate on L-agar plates. Plates were incubated at 37° C. overnight and colonies were counted the following day.
In this example, commercial electrocompetent E. coli cells, in the form of a bacterial pellet, were preserved by the foam formation process. The cells were concentrated 100-fold and preserved as described previously. To increase desiccation tolerance and enhance preservation survival. One aliquot of the cells were loaded in vitro with 10% MAG. The preserved cells were stored at 4° C. In addition to preservation by foam formation, the cells were preserved by slow freezing (with 10% DMSO) at −80° C.

[3] = tested on: commercial electrocompetent E. coli cells; assay: Electroporation of preserved commercial electrocompetent E. coli cells; details: loaded with 10% MAG, transformed immediately after drying
Description: as §1, §2, §3, §4
Preserved commercial cells (vitrified and frozen) were electroporated as described previously. Electroporation survival and electroporation efficiency in the preserved cells were determined and compared to the same parameters in the fresh cells (Table 5).

[4] = Frozen cells 72 hours at −80° C., foam formation-preserved cells (loaded with 10% MAG) dried overnight
[5] = foam-preserved cells stored at 4° C., frozen cells at −80° C.

**Q.** With `COC1OC(CO)C(O)C(O)C1O` (stereo not shown) [MAG, a-methyl-glucoside] as the compound, how does the “Electroporation Efficiency 10^−3%” value [1] read?
**A.** 5.6 10^−3%

**Q.** And the “Electroporation Efficiency Cfu/ml” value [1]?
**A.** 1.7 × 10^5 Cfu/ml

**Q.** And the “Electroporation Survival (%)” value [1]?
**A.** 28.6%

**Q.** What about the “Electroporation Survival Cfu/ml” value [1] of the same compound?
**A.** 3.0 × 10^9 Cfu/ml

**Q.** What about the “Preservation Yield Cfu/ml” value [2, 4] of the same compound?
**A.** 8.8 × 10^9 +/− 3.9 × 10^8 Cfu/ml

**Q.** And the Preservation yield % [2, 4]?
**A.** 63.6% and 63.6 +/− 2.8%

**Q.** And the “Stability (12 days) %” value [2, 5]?
**A.** 68.5% and 68.5 +/− 0.8%

**Q.** What about the “Stability (12 days) Cfu/ml” value [2, 5] of the same compound?
**A.** 9.5 × 10^9 +/− 1.1 × 10^8 Cfu/ml

**Q.** What about the “Electroporation Efficiency 10^−3%” value [3] of the same compound?
**A.** 6.1 +/− 5.5 10^−3%

**Q.** What about the “Electroporation Efficiency (Cfu/µg DNA)” value [3] of the same compound?
**A.** 1.6 × 10^4 +/− 1.8 × 10^2 Cfu/µg DNA

**Q.** What about the “Electroporation Efficiency Cfu/ml” value [3] of the same compound?
**A.** 1.9 × 10^5 +/− 1.7 × 10^5 Cfu/ml

**Q.** And the “Electroporation Survival (%)” value [3]?
**A.** 35.7 +/− 4.7%

**Q.** What about the “Electroporation Survival Cfu/ml” value ([3]; cell density 1/10 of fresh concentrates) of the same compound?
**A.** 3.2 × 10^9 +/− 4.2 × 10^8 Cfu/ml
